Data from patent US6710048B2, “Pyrazine derivatives as modulators of tyrosine kinases” (Ortho-McNeil Pharmaceutical, Inc., priority 2000, dated 2004).
pIC50: −log10 of the molar value. Where two headings read alike, the source gives them in different places.

How the values were obtained:
[1] = target: T1, VEGF-R (vascular endothelial growth factor receptor-2) (Rattus norvegicus, UniProt O08775); assay: VEGF-R screening assay (33P FlashPlate kinase assay); type: biochemical
T1 construct: polyhistidine (6xHis) (N)
T1 sequence (O08775 786-1343): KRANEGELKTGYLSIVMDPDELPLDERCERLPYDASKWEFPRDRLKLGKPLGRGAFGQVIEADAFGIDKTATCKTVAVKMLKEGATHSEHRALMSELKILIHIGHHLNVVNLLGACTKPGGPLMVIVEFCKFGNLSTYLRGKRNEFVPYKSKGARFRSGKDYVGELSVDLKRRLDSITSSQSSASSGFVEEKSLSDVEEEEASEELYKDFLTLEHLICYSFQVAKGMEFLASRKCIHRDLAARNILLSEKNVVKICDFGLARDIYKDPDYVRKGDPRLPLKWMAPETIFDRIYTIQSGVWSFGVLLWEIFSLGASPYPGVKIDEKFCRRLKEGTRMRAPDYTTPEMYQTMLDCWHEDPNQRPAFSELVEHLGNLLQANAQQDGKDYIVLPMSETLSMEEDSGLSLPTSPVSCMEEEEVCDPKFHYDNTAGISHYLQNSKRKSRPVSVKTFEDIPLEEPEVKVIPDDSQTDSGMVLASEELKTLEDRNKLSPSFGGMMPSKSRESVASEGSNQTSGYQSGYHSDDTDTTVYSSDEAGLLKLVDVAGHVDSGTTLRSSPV
Experimental: A kinase reaction mixture was prepared containing 50 mM Tris-HCl pH=8, 10 mM MgCl2, 0.1 mM NAPO4, 1 mM DTT, 10 μM ATP, 0.025 μM biotinylated peptide substrate and 0.8 μCuries per well ^33P-γ-ATP [2000-3000 Ci/mmol]. 70 μl of the kinase reaction mixture was dispensed into the well of a streptavidin coated FlashPlate™ (Cat. # SMP103, NEN, Boston, Mass.). Then 1 μl of test compound stock in 100% DMSO was added to the wells resulting in a final concentration of 1% DMSO in the reaction with a 100 μl final reaction volume. Next, soluble rat tyrosine kinase containing an N-terminal 6×HIS tag was diluted in 50 mM Tris-HCl pH=8.0, 0.1% BSA at a concentration of 5 ng per microliter and 30 μl (150 ng enzyme per test well) was added to each well to initiate the reaction. The reaction was incubated for one hour at 30° C. At the end of the 1-hour incubation, the reaction was terminated by aspirating the reaction mixture from the plate and washing the wells twice with PBS containing 100 mM EDTA. The PLCI biotinylated peptide substrate becomes immobilized on the Flashplate™ and the incorporation of ^33P-γ-ATP was measured by reading the plate on a scintillation counter. Inhibition of the enzymatic activity of the VEGF-R was measured by observing a reduced amount of ^33P-γ-ATP incorporated into the immobilized peptide.
(§1) The term n.d. means not tested.
(§2) Assays to test compound inhibition of other kinases were preformed using methods that measure the amount of phosphorylation of a biotinylated peptide substrate. Biotinylated peptide substrates were selected from the literature as appropriate for the enzyme being evaluated. The general procedure used to assay for kinase activity is as follows: A kinase reaction mix was prepared in 50 mM Tris-HCl pH=8, 10 mM MgCl2, 0.1 mM NaVO4, 1 mM DTT, 5-10 μM ATP, 0.25-1 μM biotinylated peptide substrate, 0.2-0.8 μCuries per well ^33P-γ-ATP [2000-3000 Ci/mmol]. Assay conditions vary slightly for each protein kinase, for example, insulin receptor kinase requires 10 mM MnCl2 for activity and Calmodulin-dependent protein kinase requires calmodulin and 2 mM CaCl2. The reaction mixture was dispensed into the wells of a streptavidin coated Flashplate and 1 μl drug stock in 100% DMSO was added to a 100 μl reaction volume resulting in a final concentration of 1% DMSO in the reaction. Enzyme was diluted in 50 mM Tris-HCl pH=8.0, 0.1% BSA and added to each well. The reaction was incubated for one hour at 30° C. in the presence of compound. After one hour the reaction mix was aspirated from the plate and the plate was washed with PBS containing 100 mM EDTA. The plate was read on a scintillation counter to determine ^33P-γ-ATP incorporated into the immobilized peptide. Test compounds were assayed in duplicate at 8 concentrations [100 tM, 10 μM, 1 μM, 100 nM, 10 nM, 1 nM, 100 μM, 10 μM]. A maximum and minimum signal for the assay was determined on each plate. The IC50 was calculated from the dose response curve of the percent inhibition of the maximum signal in the assay according to the formula [max signal−background/test compound signal−background (100)=% inhibition] by graphing the percent inhibition against the log concentration of test compound. Known inhibitor compounds appropriate for the kinase being assayed were also included on each plate.
VEGF-R (vascular endothelial growth factor receptor-2) is a fusion protein containing a polyhistidine tag at the N-terminus followed by amino acids 786-1343 of the rat VEGF-R2 kinase domain (GenBank Accession #U93306). CDK1 (cyclin dependent kinase 1) is isolated from insect cells expressing both the human CDK1 catalytic subunit and its positive regulatory subunit cyclin B (New England Biolabs, Beverly, Mass., Cat. #6020). CDK4 (cyclin dependent kinase 4) contains amino acids 769 to 921 of the mouse […] protein found in the GST-retinoblastoma protein construct (Santa Cruz Biotechnology, Santa Cruz, Calif.; Cat. #SC-4112). […]

[2] = target: T2, CDK1 (cyclin dependent kinase 1) / cyclin B (Homo sapiens, UniProt P06493); assay: CDK1 kinase assay; type: biochemical
T2 construct: purchased New England Biolabs 6020; host or cells: insect cells
T2 sequence (P06493 whole entry): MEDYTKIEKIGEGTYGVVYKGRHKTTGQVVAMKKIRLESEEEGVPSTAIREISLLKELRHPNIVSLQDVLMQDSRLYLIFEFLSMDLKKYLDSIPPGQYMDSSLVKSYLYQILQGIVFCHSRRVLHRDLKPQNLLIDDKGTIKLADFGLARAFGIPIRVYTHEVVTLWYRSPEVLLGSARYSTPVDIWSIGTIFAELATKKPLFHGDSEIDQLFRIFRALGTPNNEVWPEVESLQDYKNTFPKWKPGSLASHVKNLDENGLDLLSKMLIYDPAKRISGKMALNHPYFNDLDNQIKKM
T2 sequence (P14635 whole entry partner): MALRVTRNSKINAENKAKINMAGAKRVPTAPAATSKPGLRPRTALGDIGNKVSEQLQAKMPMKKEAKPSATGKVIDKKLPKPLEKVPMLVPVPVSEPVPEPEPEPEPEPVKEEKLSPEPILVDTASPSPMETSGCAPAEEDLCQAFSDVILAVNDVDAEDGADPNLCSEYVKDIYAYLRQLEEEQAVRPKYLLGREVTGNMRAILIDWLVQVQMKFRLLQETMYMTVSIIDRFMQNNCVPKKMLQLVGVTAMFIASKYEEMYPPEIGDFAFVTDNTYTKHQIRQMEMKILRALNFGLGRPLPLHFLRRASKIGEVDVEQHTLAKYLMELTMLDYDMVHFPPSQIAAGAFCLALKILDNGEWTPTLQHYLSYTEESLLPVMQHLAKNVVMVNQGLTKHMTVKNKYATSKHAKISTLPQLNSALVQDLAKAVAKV
Experimental: as §1
as §2, with “Test compounds were assayed in duplicate at 8 concentrations [100 tM, 10 μM, 1 μM, 100 nM, 10 nM, 1 nM, 100 μM, 10 μM].” left out
VEGF-R (vascular endothelial growth factor receptor-2) is a fusion protein containing a polyhistidine tag at the N-terminus followed by amino acids 786-1343 of the rat VEGF-R2 kinase domain (GenBank Accession #U93306). CDK1 (cyclin dependent kinase 1) is isolated from insect cells expressing both the human CDK1 catalytic subunit and its positive regulatory subunit cyclin B (New England Biolabs, Beverly, Mass., Cat. #6020). CDK4 (cyclin dependent kinase 4) contains amino acids 769 to 921 of the mouse […] protein found in the GST-retinoblastoma protein construct (Santa Cruz Biotechnology, Santa Cruz, Calif.; Cat. #SC-4112). Insulin Receptor Kinase consists of residues 941-1313 of the cytoplasmic domain of the beta-subunit of the human insulin receptor (BIOMOL, Plymouth Meeting, Pa., Cat. #SE-195). Protein Kinase A is the catalytic subunit of cAMP dependent protein kinase-A purified from bovine heart (Upstate Biotech, Lake Placid, N.Y., Cat#14-114). PKC (protein kinase-C) is the gamma or beta isoform of the human protein produced in insect cells (BIOMOL, Plymouth Meeting, Pa., Cat. #SE-143). Casein Kinase 1 is a truncation at amino acid 318 of the C-terminal portion of the rat CK1 delta isoform produced in E.coli (New England Biolabs, Beverly, Mass., Cat. #6030). Casein Kinase 2 includes the alpha and beta subunits of the human CK2 protein produced in E.coli (New England Biolabs, Beverly, Mass., Cat. #6010). Calmodulin Kinase (calmodulin-dependent protein kinase 2) is a truncated version of the alpha subunit of the rat protein produced in insect cells (New England Biolabs, Beverly, Mass., Cat. #6060). Glycogen Synthase Kinase-3 is the beta isoform of the rabbit enzyme produced in E. coli (New England Biolabs, Beverly, Mass., Cat. #6040). MAP Kinase is the rat ERK-2 isoform containing a polyhistidine tag at the N-terminus produced in E. coli. and activated by phosphorylation with MEK1 prior to purification (BIOMOL, Plymouth Meeting, Pa., Cat. #SE-137). EGFR (epidermal growth factor receptor) is purified from human A431 cell membranes (Sigma, St. Louis, Mo., Cat.# E3641). […]

[3] = Tables 1-3, >10 or >100 = no 50% inhibition at highest dose tested, read-out: VEGF-R IC50
[4] = Tables 1-3, >10 or >100 = no 50% inhibition at highest dose tested, read-out: CDK IC50
[5] = Table 4 kinase selectivity, read-out: IC50, Assay 1 VEGF-R
[6] = Table 4 kinase selectivity, 10 = approximate value, read-out: IC50, Assay 2 CDK1

| pIC50 [1, 3] | pIC50 [2, 4] | pIC50 [1, 5] | pIC50 [2, 6] | Compound |
| --- | --- | --- | --- | --- |
| ~5.00 | < 4.00 |  |  | COCCNC(=O)c1cncc(-c2cncc(Nc3cccc(Cl)c3)n2)c1 [Cmd 36] |
| < 5.00 | < 5.00 |  |  | OCCCNc1cnc(Cl)c(-c2cncc(Nc3cccc(Cl)c3)n2)c1 [Cmd 110] |
| < 5.00 | < 5.00 |  |  | CC(=O)Nc1ncc(NCCCO)cc1-c1cncc(Nc2cccc(Cl)c2)n1 [Cmd 109] |
| 6.39 | < 5.00 |  |  | O=C(CO)Nc1cncc(-c2cncc(Nc3cccc(Cl)c3)n2)c1 [Cmd 105] |
| 6.00 | < 5.00 |  |  | Clc1ccc(Nc2cncc(-c3cncc(NCCCc4ccncc4)c3)n2)cc1 [Cmd 87] |
| 6.55 | < 5.00 |  |  | OCCOCCOCCNc1cncc(-c2cncc(Nc3cccc(Cl)c3)n2)c1 [Cmd 78] |
| 5.96 | < 5.00 |  |  | CCN(CC)C(=O)CNc1cncc(-c2cncc(Nc3cccc(Cl)c3)n2)c1 [Cmd 81] |
| 6.53 |  |  |  | Clc1cccc(Nc2cncc(-c3cncc(NCCCCc4ccncc4)c3)n2)c1 [Cmd 70] |
| 6.74 | < 4.00 |  |  | Clc1cccc(Nc2cncc(-c3cncc(NCCCN4CCOCC4)c3)n2)c1 [Cmd 34] |
| 6.90 | 5.69 | 6.90 | 5.69 | CCOC(=O)CCCNc1cncc(-c2cncc(Nc3cccc(Cl)c3)n2)c1 [Cmd 84] |
| 6.23 | < 5.00 |  |  | COCCC(=O)Nc1cncc(-c2cncc(Nc3cccc(Cl)c3)n2)c1 [Cmd 103] |
| 6.09 | 4.09 |  |  | COc1cccc(Nc2cncc(-c3cncc(NCCCO)c3)n2)c1 [Cmd 57] |
| < 4.00 | < 4.00 |  |  | CN(C)c1ccc(C(=O)Nc2cncc(-c3cncc(Nc4cccc(Cl)c4)n3)c2)cc1 [Cmd 42] |
| 6.81 | < 5.00 |  |  | COc1ccc(Nc2cncc(-c3cncc(NCCCc4ccncc4)c3)n2)cc1 [Cmd 88] |
| 5.37 | 5.43 |  |  | CN(C)CCNC(=O)c1cncc(-c2cncc(Nc3cccc(Cl)c3)n2)c1 [Cmd 38] |
| < 5.00 | < 5.00 |  |  | O=C(CCCOc1ccccc1)Nc1cncc(-c2cncc(Nc3cccc(Cl)c3)n2)c1 [Cmd 100] |
| 6.44 | < 5.00 |  |  | Clc1cccc(Nc2cncc(-c3cncc(NCCCN4CCNCC4)c3)n2)c1 [Cmd 69] |

| pIC50 [1, 3] | pIC50 [2, 4] | pIC50 [1, 5] | pIC50 [2, 6] | Compound |
| --- | --- | --- | --- | --- |
| 6.82 | ~5.00 |  |  | OCCNc1cncc(-c2cncc(Nc3cccc(Cl)c3)n2)c1 [Cmd 31] |
| < 5.00 | < 5.00 |  |  | Clc1cccc(Nc2cncc(-c3cncc(NCCCN4CCN(c5cccc(Cl)c5)CC4)c3)n2)c1 [Cmd 86] |
| < 5.00 | < 5.00 |  |  | N#Cc1ncc(NCCCO)cc1-c1cncc(Nc2cccc(Cl)c2)n1 [Cmd 111] |
| 6.44 to 6.86 | < 5.00 |  |  | OCCCNc1cnc(F)c(-c2cncc(Nc3cccc(Cl)c3)n2)c1 [Cmd 106] |
| 6.03 | < 5.00 |  |  | CCOCC(=O)Nc1cncc(-c2cncc(Nc3cccc(Cl)c3)n2)c1 [Cmd 102] |
| 5.95 | < 4.00 |  |  | O=C(Nc1cncc(-c2cncc(Nc3cccc(Cl)c3)n2)c1)c1cccnc1 [Cmd 43] |
| 6.44 | < 4.00 |  |  | COCC(=O)Nc1cncc(-c2cncc(Nc3cccc(Cl)c3)n2)c1 [Cmd 41] |
|  | < 5.00 |  |  | CCOC(=O)c1cncc(-c2cncc(Nc3cccc(Cl)c3)n2)c1 [Cmd 1] |
| 7.07 | < 5.00 | 7.07 | < 5.00 | COCCOCCNc1cncc(-c2cncc(Nc3cccc(Cl)c3)n2)c1 [Cmd 85] |
| 5.94 | 4.93 |  |  | Nc1cncc(-c2cncc(Nc3cccc(Cl)c3)n2)c1 [Cmd 5] |
| < 5.00 | < 5.00 |  |  | O=C(COc1ccccc1)Nc1cncc(-c2cncc(Nc3cccc(Cl)c3)n2)c1 [Cmd 99] |
| 5.64 | < 5.00 |  |  | Clc1cccc(Nc2cncc(-c3cncc(NCCCc4ccccc4)c3)n2)c1 [Cmd 80] |
| 5.37 | < 5.00 |  |  | Clc1cccc(Nc2cncc(-c3cncc(NCc4ccccc4)c3)n2)c1 [Cmd 82] |
| 5.98 | 4.46 |  |  | OCCCNc1cncc(-c2cncc(NCc3ccccc3)n2)c1 [Cmd 62] |
| < 5.00 | < 5.00 |  |  | O=C(COCc1ccccc1)Nc1cncc(-c2cncc(Nc3cccc(Cl)c3)n2)c1 [Cmd 101] |
| < 5.00 | < 5.00 |  |  | OCCCNc1cncc(-c2cncc(Oc3cccc(Cl)c3)n2)c1 [Cmd 96] |
| < 5.00 | < 5.00 |  |  | Clc1cccc(Nc2cncc(-c3cncc(NCCOc4ccccc4)c3)n2)c1 [Cmd 83] |
